Measured values taken from patent US9968585B2, “Prevention or treatment agent for cerebral amyloid beta storage diseases” (TOYAMA CHEMICAL CO., LTD., priority 2014, dated 2018).

Assays:
[1] = test system: patient with moderate dementia caused by AZD; experiment: Clinical case, Example 2: patient with moderate dementia caused by AZD, not associated with CAA; assay type: in vivo, human
Protocol: A person became indifferent to social activities and meeting people 3 to 4 years ago. Cognitive impairment appeared to the degree to cause difficulty in daily life activities 2 years ago. One year ago, cognitive impairment further progressed and MMSE was conducted to get scores of 14 or less. Since a head imaging detected moderate atrophy in the cerebral cortex including the parietal lobe and the hippocampus, the patient was diagnosed with “moderate dementia caused by AZD” based on the clinical and brain imaging observations. In the everyday life, disturbance of memorization was observed, in which the patient forgot contents of conversation in 5 minutes and purchased the same thing repeatedly when they went out alone. The patient liked cooking previously, but became unable to cook or adjust the taste. […] The patient became unable to manage own medication such as an antihypertensive agent (cognitive impairment on table and calculation) and management by a family member became necessary. Since efficacy (suppression of progressive symptoms) of a conventional drug against AZD was not observed for a half year or more, the administration of iguratimod at 25 mg/day was started, based on the informed consent to the patient and their family, and the dose was increased to 50 mg/day 4 weeks later.

[2] = test system: patient with complication of AZD and CAA; experiment: Clinical case, Example 1: patient with complication of AZD and CAA; assay type: in vivo, human
Text: Patient
Family history: […] died of cerebral hemorrhage (type unknown) in his 50s. […]
Past history: deep white matter lesions (diagnosed by head MRI, T2-WI), lateral ventricular low density area (diagnosed by head CT), and moderate cerebral atrophy in the cerebral cortex including the hippocampus, parietal lobe, and frontal lobe and mild disturbance of memorization had been observed. However, there was no particular problem in everyday life.
History of present illness: person, walking difficulty (decreased speed and decreased stability of walking) appeared and then progressed slowly. Continuous walking of long distances of 600 m or more and walking with a heavy load (10 kg or more) in their hand or on their shoulder became difficult. Short-stepped gait and frontal gait appeared sometimes, with no fall. Cerebrovascular disorder was suspected and examinations by CT and MRI (other than T2-WI) were conducted. However, any responsible lesions, which were likely to develop relatively rapid walking difficulties, were not found, other than deep white matter lesions and moderate cerebral atrophy, which were observed previously. Parkinson's disease (syndrome) was also suspected and a therapeutic agent for the disease was temporarily administered, which was stopped because of the lack of efficacy. […] Instability of walking also progressed relatively rapidly and it became difficult to walk outdoor without a walking stick.
Meanwhile, MRI (T1/2WI, T2-WI) detected multiple micro-bleeding mainly in the area from bilateral basal ganglia (thalamus and hypothalamus) to upper brain stem and the patient was diagnosed with CAA. The patient was also diagnosed with AZD based on diffuse cerebral atrophy including hippocampus and a wide range of cerebral cortex and moderate dementia. […]
For walking, an assistance, or at least handrail, became always necessary and continuous walking of distances of 50 m or more became difficult (unstable) even with an assistance. Furthermore, the patient was frequently found in a somnolence state even in the daytime and occasional decrease in the level of consciousness during meal caused difficulty in swallowing. Standing and walking became impossible during a period of repeated high fever. Chest CT detected a sign of aspiration pneumonia and the patient was admitted to a nearby hospital.
Immediately after the hospitalization, administration of antibiotics against the pulmonary inflammatory disease was started and high dose administration of mineralocorticoid (200 mg injection of Hydrocortone/day, for 7 days in plan) was also started for the purpose of steroid supplementation against the potential hypoadrenalism (mineral imbalance), due to the previous sustained steroid (5 mg) therapy. […] On Day 9 after the hospitalization, the patient became almost bedridden and nonresponsive. On Day 10 after the hospitalization, administration of a high dose of glucocorticoid (30 mg/day of Predonine) for anti-inflammatory effect was therefore started for the purpose of ameliorating the cerebral hypofunction, based on the informed consent.
However, from Day 20 after the hospitalization, a somnolence tendency appeared again and the symptoms of decline of cognitive ability, inability to walk, lack of speech, urine incontinence, apraxia and agnosia appeared again.
Since no tendency to alleviate the symptoms was observed, on Day 22 after the hospitalization, administration of 25 mg of iguratimod (for example, the trade name “Kolbet” produced and sold as an antirheumatic drug by Taisho Toyama Pharmaceutical Co., Ltd. or the trade name “Careram” produced and sold by Eisai Co., Ltd.), in addition to the high dose glucocorticoid therapy, was started for the purpose of ameliorating cognitive impairment, walking impairment, decrease of energy and spontaneity, and aphasia, apraxia, and agnosia, based on the informed consent. […]

[3] = test system: production of interleukin-1 and 6 (IL-1/6) and tumor necrosis factor (TNFα) from monocyte lineage cells (macrophages); conditions: in inflammation; cited from earlier work
[4] = compared with MTX and SASP; cited from earlier work
[5] = 6 months after starting the administration
[6] = at discharge, 2 months after starting the administration

CS(=O)(=O)Nc1cc2occ(NC=O)c(=O)c2cc1Oc1ccccc1 [iguratimod, N-(3-formamido-4-oxo-6-phenoxy-4H-chromen-7-yl) methanesulfonamide]
head imaging: progression of cerebral atrophy ([1]; 5 months after starting the administration): the progression of cerebral atrophy was not observed | Scores of MMSE ([1]; 5 months after starting the administration, scores one year before 14 or less): ≥ 17 | symptoms in daily life ([1]; iguratimod 25 mg/day, 50 mg/day after 4 weeks, 3 months after starting the administration): symptoms such as getting lost and failing to go home and purchasing the same thing repeatedly had disappeared | continuous walking distance with an assistance [2, 5]: about 100 m | steps of stairs walked up with an assistance and use of handrail [2, 5]: 15 steps | head MRI: novel vascular abnormality or progression of cerebral atrophy ([2]; 6 months after starting the administration, compared with MRI before starting): did not detect any appearance of novel vascular abnormality or progression of cerebral atrophy | head imaging by 3T-MRI:SWI: progression of cerebral atrophy and other lesions ([2]; 7 months and 19 months after the beginning of iguratimod): the progression of cerebral atrophy and other lesions was not apparent | eating behavior ([2]; a half year after starting the administration): able to have meals by oneself using chopsticks | continuous walking distance with an assistance [2, 6]: about 50 m | steps of stairs walked up with an assistance at both arms [2, 6]: 8 steps | spontaneity and neurological symptoms ([2]; iguratimod 25 mg added to high dose glucocorticoid, 2 days after starting the administration): apparent amelioration of spontaneity was observed | mini-mental state examination (MMSE) score ([2]; one year after starting oral administration, score before starting 10 or less (severe dementia)): ≥ 10 | symptoms after steroid agent stopped completely ([2]; one year after starting the administration of iguratimod): no aggravation of symptoms | effect on production of IL-1/6 and TNFα from monocyte lineage cells (macrophages) [3]: suppressing effects | efficacy in rheumatoid arthritis [4]: efficacy equivalent to MTX and SASP

C[C@]12CCC(=O)C=C1CC[C@@H]1[C@@H]2[C@@H](O)C[C@@]2(C)[C@H]1CC[C@]2(O)C(=O)CO [Hydrocortone]
neurological symptoms (energy, speech, cognitive function, walking ability) ([2]; 200 mg injection/day, from 3 days after the start of the steroid replacement therapy): increase in energy and speech, amelioration of cognitive function, and improvement of walking ability were observed | neurological symptoms ([2]; 200 mg injection/day, from Day 5 to 6 after the start of administration): the symptoms gradually aggravated

C[C@]12C=CC(=O)C=C1CC[C@@H]1[C@@H]2[C@@H](O)C[C@@]2(C)[C@H]1CC[C@]2(O)C(=O)CO [Predonine]
neurological symptoms (somnolence, energy, speech, walking, meals) ([2]; high dose glucocorticoid (30 mg/day of Predonine) started on Day 10 after hospitalization): alleviated a neurological symptom (decrease in somnolence), increased energy and speech | prevention of progression of the symptoms ([2]; sustained glucocorticoid therapy at maximum dose for the patient's age, for 10 days or more, symptoms reappeared from Day 20 after hospitalization): cannot prevent the progression of the symptoms
